Each structure is given as a SMILES string.

Holding throughout (format): cell-based
For assay [1], the target named is T1, EGFR WT (Ba/F3 cells) (Homo sapiens, UniProt P00533).
T1 construct: expressed in transfected cells; host or cells: Ba/F3 (murine pro-B cells), retroviral transduction, puromycin selection, maintained with EGF
The experiment in a line: Inhibitor activity on EGFR-dependent cell growth (CellTiter-Glo, 72 h), Ba/F3 EGFR WT. Conditions: read-out: BaF3 WT IC50. An excerpt: (§1) Example A. Inhibitor Activity on EGFR-Dependent Cell Growth
(§2) Cell lines are generated by transducing Ba/F3 cells with retroviruses containing vectors with EGFR WT, EGFR L858R, EGFR exon 19del, EGFR L858R/C797S, EGFR exon 20 NPG Ins D770_N771, EGFR exon 20 ASV Ins V769_D770, EGFR exon 20 SVD Ins D770_N771, or EGFR exon 20 FQEA Ins A763_V764 genes and a puromycin selection marker. Transduced cells are selected with puromycin for 7 days and are then be transferred into culture media without Interleukin 3 (IL3). EGFR WT cells are maintained with supplemental EGF. Surviving cells are confirmed to express EGFR by Western blot and maintained as a pool. The IC50 date were included in Table 6 and Table 7.
(§3) 1.1 Cells are harvested from flask into cell culture medium and the cell number counted.
(§4) 1.2 Cells are diluted with culture medium to the desired density and 40 μL of cell suspension is added into each well of 384-well cell culture plate and the seeding density is 800 (FQEA, exon 19del), 600 (WT, NPG, L858R/C797S), or 400 (ASV, SVD, L858R) cells/well.
(§5) 2 Compound Preparation and Treatment
(§6) 2.1 Test compounds are dissolved to 10 mM in a DMSO stock solution. 45 μL of stock solution is transferred to a 384 polypropylene plate (pp-plate). Perform 3-fold, 10-point dilution via transferring 15 μL compound into 30 μL DMSO using a TECAN (EVO200) liquid handler.
(§7) 2.2 Spin plates at room temperature at 1,000 RPM for 1 minute.
(§8) 2.3 Transfer 120 nL of diluted compound from compound source plate into the cell plate.
(§9) 2.4 After compound treatment for 72 hours, perform CTG detection for compound treatment plates as described in “Detection” section.
(§10) 3.1 Plates are removed from incubators and equilibrated at room temperature for 15 minutes.
(§11) 3.2 Thaw the CellTiter Glo reagents and allow to equilibrate to room temperature before the experiment.
(§12) 3.3 Add 40 μL of CellTiter-Glo reagent into each well (at 1:1 to culture medium). Then place the plates at room temperature for 30 min followed by reading on EnVision.
(§13) 4.1 Inhibition activity is calculated following the formula below:
(§14) % Inhibition=100×(LumHC−LumSample)/(LumHC−LumLC) • where HC is obtained from cells treated with 0.1% DMSO only; and LC is obtained from culture medium only.
(§15) 4.2 2. Calculate the IC50 by fitting the Curve using Xlfit (v5.3.1.3), equation 201.
(§16) Y=Bottom+(Top−Bottom)/(1+10^((Log IC50−X)*HillSlope))
(In general: Cellular ATP, detected with luciferase, serves as a proxy for viable cell number.)

Assay [2] concerns the target T2, EGFR exon 20 ASV Ins V769_D770 (Ba/F3 cells) (Homo sapiens, UniProt P00533, INS769ASV).
T2 construct: expressed in transfected cells; host or cells: Ba/F3 (murine pro-B cells), retroviral transduction, puromycin selection, IL3-independent pool
Briefly: Inhibitor activity on EGFR-dependent cell growth (CellTiter-Glo, 72 h), Ba/F3 EGFR exon 20 ASV Ins. Conditions: read-out: BaF3 ASV IC50.
Text: as §1, §2, §3, §4, §5, §6, §7, §8, §9, §10, §11, §12, §13, §14, §15, §16

Assay [3] addresses T3, EGFR exon 20 SVD Ins D770_N771 (Ba/F3 cells) (Homo sapiens, UniProt P00533, INS770SVD).
T3 construct: expressed in transfected cells; host or cells: Ba/F3 (murine pro-B cells), retroviral transduction, puromycin selection, IL3-independent pool
Briefly: Inhibitor activity on EGFR-dependent cell growth (CellTiter-Glo, 72 h), Ba/F3 EGFR exon 20 SVD Ins. Conditions: read-out: BaF3 SVD IC50.
Text: as §1, §2, §3, §4, §5, §6, §7, §8, §9, §10, §11, §12, §13, §14, §15, §16

In assay [4] the target is T4, EGFR exon 20 FQEA Ins A763_V764 (Ba/F3 cells) (Homo sapiens, UniProt P00533, INS763FQEA).
T4 construct: expressed in transfected cells; host or cells: Ba/F3 (murine pro-B cells), retroviral transduction, puromycin selection, IL3-independent pool
T4 sequence (P00533 with tags, fused parts or gaps INS763FQEA): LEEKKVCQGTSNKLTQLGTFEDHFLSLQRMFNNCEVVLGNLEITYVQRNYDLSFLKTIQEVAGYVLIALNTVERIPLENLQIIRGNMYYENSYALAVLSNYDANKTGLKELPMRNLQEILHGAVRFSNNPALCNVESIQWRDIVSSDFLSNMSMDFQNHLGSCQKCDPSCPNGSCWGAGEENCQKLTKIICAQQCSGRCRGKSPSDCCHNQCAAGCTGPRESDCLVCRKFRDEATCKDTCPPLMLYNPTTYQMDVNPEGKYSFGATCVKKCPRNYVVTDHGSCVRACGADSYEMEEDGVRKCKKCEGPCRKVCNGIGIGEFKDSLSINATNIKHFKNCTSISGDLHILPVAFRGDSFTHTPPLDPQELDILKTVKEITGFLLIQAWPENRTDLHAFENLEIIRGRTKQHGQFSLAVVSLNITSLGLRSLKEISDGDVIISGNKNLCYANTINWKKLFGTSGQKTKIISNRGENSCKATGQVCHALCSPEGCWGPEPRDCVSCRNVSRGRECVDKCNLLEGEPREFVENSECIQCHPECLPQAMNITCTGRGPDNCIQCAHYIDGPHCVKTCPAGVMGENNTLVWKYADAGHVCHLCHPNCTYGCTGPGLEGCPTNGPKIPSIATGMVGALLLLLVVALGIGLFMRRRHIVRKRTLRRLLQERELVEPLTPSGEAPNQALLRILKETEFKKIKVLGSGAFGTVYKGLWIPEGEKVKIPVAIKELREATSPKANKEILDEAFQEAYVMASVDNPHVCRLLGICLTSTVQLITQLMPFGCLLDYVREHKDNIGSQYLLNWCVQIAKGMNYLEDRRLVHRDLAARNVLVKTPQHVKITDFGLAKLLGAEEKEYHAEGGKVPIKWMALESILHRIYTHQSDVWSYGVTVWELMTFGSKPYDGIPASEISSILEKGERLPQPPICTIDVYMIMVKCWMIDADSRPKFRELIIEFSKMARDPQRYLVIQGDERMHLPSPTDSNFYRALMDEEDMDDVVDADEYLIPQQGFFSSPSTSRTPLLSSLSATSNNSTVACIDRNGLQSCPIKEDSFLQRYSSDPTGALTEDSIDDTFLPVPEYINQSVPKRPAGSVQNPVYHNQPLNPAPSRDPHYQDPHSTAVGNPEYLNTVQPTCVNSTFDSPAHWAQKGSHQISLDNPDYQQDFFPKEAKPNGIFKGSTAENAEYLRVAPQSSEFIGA
Briefly: Inhibitor activity on EGFR-dependent cell growth (CellTiter-Glo, 72 h), Ba/F3 EGFR exon 20 FQEA Ins. The conditions noted are these: read-out: BaF3 FQEA IC50.
Text: as §1, §2, §3, §4, §5, §6, §7, §8, §9, §10, §11, §12, §13, §14, §15, §16

T3 sequence (P00533 with tags, fused parts or gaps INS770SVD): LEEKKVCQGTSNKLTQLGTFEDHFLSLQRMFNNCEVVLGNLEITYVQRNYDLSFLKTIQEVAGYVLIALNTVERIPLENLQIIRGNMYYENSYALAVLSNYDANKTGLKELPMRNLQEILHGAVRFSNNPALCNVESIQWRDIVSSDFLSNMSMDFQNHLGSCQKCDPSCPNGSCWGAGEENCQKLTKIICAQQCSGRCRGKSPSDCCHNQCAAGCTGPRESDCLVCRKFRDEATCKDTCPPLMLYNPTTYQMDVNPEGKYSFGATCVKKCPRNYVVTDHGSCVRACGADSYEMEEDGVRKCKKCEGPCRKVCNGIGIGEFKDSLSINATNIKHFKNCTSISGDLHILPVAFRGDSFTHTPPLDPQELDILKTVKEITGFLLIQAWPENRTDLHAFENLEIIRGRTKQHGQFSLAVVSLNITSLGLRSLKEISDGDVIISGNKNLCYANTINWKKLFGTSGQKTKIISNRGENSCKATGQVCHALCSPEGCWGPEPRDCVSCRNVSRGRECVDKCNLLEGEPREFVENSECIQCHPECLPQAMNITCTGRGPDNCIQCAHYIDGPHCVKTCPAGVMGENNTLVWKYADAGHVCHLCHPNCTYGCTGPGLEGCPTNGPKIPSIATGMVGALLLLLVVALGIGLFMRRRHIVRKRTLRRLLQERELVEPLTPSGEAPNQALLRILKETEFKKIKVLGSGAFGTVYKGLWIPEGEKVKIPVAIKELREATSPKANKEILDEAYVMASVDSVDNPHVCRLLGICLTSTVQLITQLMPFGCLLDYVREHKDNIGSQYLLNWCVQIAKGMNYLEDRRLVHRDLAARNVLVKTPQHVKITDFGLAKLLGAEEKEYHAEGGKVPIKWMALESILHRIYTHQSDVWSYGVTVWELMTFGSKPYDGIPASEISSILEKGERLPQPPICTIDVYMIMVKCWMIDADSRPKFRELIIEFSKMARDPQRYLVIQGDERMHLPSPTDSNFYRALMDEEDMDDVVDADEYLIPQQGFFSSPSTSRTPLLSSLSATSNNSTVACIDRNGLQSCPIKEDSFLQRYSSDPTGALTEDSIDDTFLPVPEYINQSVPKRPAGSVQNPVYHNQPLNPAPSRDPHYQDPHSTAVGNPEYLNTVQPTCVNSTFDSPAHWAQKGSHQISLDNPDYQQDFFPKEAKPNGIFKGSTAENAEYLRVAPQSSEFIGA
T1 sequence (P00533 25-1210): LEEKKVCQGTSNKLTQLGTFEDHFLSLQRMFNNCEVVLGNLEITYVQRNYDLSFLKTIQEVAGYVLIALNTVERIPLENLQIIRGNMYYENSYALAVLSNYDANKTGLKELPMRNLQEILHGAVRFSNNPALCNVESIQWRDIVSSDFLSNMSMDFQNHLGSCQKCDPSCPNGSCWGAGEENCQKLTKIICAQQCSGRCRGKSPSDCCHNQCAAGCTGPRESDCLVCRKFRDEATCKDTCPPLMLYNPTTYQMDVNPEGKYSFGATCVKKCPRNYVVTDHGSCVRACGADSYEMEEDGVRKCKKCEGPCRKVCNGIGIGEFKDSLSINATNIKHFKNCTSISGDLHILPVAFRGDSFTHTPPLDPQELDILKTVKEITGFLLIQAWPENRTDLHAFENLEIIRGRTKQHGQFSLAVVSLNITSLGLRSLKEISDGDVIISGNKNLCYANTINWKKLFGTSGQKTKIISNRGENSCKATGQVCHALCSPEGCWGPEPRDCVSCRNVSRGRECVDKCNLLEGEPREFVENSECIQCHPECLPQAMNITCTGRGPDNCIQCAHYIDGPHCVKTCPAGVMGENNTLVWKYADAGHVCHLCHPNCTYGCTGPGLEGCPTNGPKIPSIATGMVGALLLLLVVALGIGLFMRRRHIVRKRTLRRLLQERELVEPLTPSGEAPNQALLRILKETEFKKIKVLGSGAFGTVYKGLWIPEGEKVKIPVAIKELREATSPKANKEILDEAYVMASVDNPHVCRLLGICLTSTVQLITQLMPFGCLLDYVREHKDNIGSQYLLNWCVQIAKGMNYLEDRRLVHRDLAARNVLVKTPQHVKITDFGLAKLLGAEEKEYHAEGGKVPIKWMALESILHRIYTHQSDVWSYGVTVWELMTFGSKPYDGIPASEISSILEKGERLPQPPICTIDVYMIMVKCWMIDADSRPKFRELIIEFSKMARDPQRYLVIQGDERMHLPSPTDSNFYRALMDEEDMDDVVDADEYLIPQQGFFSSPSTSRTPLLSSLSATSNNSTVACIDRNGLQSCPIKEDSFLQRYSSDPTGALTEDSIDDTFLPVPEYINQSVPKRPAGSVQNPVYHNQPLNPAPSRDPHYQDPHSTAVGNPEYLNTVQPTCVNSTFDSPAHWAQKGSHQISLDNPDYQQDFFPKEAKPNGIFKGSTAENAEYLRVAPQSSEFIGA
T2 sequence (P00533 with tags, fused parts or gaps INS769ASV): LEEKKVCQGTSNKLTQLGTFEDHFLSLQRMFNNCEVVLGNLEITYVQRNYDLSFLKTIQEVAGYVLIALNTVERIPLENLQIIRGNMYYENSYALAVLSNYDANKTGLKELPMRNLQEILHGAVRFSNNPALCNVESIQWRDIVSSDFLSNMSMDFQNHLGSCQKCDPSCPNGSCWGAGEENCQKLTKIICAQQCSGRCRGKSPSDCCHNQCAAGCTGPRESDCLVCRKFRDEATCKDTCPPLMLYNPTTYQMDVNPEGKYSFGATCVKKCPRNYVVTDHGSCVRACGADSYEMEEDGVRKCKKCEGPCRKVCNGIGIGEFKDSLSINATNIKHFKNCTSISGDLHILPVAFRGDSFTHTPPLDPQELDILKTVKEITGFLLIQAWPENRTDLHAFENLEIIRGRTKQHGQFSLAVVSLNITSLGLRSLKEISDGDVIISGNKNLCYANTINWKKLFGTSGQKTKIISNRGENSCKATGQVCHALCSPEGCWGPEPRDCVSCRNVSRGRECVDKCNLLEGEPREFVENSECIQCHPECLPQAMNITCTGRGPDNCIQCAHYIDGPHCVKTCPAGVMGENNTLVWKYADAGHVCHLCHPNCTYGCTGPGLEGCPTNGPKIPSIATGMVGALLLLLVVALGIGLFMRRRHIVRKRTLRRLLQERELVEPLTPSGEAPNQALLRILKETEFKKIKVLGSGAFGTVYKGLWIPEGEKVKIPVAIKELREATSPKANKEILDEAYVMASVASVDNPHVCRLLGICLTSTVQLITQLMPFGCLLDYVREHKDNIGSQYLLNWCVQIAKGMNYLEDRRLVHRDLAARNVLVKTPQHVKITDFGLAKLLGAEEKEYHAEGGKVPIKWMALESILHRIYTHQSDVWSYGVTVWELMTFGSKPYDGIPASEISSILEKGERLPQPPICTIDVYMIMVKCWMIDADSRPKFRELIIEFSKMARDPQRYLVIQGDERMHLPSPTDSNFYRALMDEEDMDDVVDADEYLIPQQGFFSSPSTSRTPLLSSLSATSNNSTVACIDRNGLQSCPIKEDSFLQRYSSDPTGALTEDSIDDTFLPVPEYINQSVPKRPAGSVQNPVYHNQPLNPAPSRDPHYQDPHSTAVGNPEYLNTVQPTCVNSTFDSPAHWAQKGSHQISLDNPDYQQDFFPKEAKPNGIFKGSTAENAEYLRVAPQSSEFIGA

Usually IC50 stands for the concentration at which inhibition is half-maximal. Take `COc1c(Cl)cccc1Nc1c(-c2ccnc(Nc3ccc(N4CCN(C)CC4)nc3)n2)[nH]c2c1C(=O)NCC2` [compound 518, 3-[(3-chloro-2-methoxyphenyl)amino]-2-(2-{[6-(4-methylpiperazin-1-yl)pyridin-3-yl]amino}pyrimidin-4-yl)-1H,5H,6H,7H-pyrrolo[3,2-c]pyridin-4-one]: the IC50 in assay [1] is 100 to 1000 nM; in assay [2], under 100 nM; in assay [3], under 100 nM; in assay [4], under 100 nM.
`COCC[C@@H]1CNC(=O)c2c1[nH]c(-c1ccnc(C)n1)c2Nc1cccc(Cl)c1OC` [463a]: the IC50 in assay [1] was over 1000 nM; in assay [2] it was 100 to 1000 nM; in assay [3], under 100 nM; in assay [4], 100 to 1000 nM.
On to `COc1ncc2nccc(-c3[nH]c4c(c3Nc3cccc(Cl)c3C)C(=O)NCC4)c2n1` [Compound 793, 3-[(3-chloro-2-methylphenyl)amino]-2-[2-methoxypyrido[3,2-d]pyrimidin-8-yl]-1H,5H,6H,7H-pyrrolo[3,2-c]pyridin-4-one], for which the half-inhibitory concentration (IC50) in assay [1] was 100 to 1000 nM; in assay [2] it was under 100 nM; in assay [3], under 100 nM; in assay [4], under 100 nM.
On to `CCc1c(F)cccc1Nc1c(-c2ccnc3cnc(OC)nc23)[nH]c2c1C(=O)NCC2` [Compound 791, 3-[(2-ethyl-3-fluorophenyl)amino]-2-[2-methoxypyrido[3,2-d]pyrimidin-8-yl]-1H,5H,6H,7H-pyrrolo[3,2-c]pyridin-4-one], for which the IC50 was 100 to 1000 nM in assay [1], under 100 nM in assay [2], under 100 nM in assay [3] and 100 to 1000 nM in assay [4].
As for `COc1cc2c(-c3[nH]c4c(c3Nc3cccc(Cl)c3OC)C(=O)NCC4)ccnc2cn1` [Compound 772, 3-[(3-chloro-2-methoxyphenyl)amino]-2-(6-methoxy-1,7-naphthyridin-4-yl)-1H,5H,6H,7H-pyrrolo[3,2-c]pyridin-4-one], the IC50 in assay [1], in assay [2], in assay [3] and in assay [4] was over 1000 nM throughout.
Regarding `COc1c(Cl)cccc1Nc1c(-c2ccnc(NC3CCOCC3)n2)[nH]c2c1C(=O)NCC2` [compound 708, 3-((3-chloro-2-methoxyphenyl)amino)-2-(2-((tetrahydro-2H-pyran-4-yl)amino)pyrimidin-4-yl)-1,5,6,7-tetrahydro-4H-pyrrolo[3,2-c]pyridin-4-one], the IC50 in assay [1], in assay [2], in assay [3] and in assay [4] was over 1000 nM throughout.
`COc1ncc2nccc(-c3[nH]c4c(c3Nc3cccc(F)c3OC)C(=O)NCC43CC3)c2n1` [compound 379]: the half-maximal inhibitory concentration (IC50) was 100 to 1000 nM in assay [1], under 100 nM in assay [2], under 100 nM in assay [3] and under 100 nM in assay [4].
For the compound `COc1ncc2nccc(-c3[nH]c4c(c3Nc3cccc(F)c3F)C(=O)NCC4)c2n1` [Compound 805, 3-[(2,3-difluorophenyl)amino]-2-[2-methoxypyrido[3,2-d]pyrimidin-8-yl]-1H,5H,6H,7H-pyrrolo[3,2-c]pyridin-4-one], the IC50 is 100 to 1000 nM in assay [1], 100 to 1000 nM in assay [2], under 100 nM in assay [3] and under 100 nM in assay [4].
As for `COc1c(Cl)cccc1Nc1c(-c2ccncc2F)[nH]c2c1C(=O)NC[C@@H]2CCF` [compound 813], the half-maximal inhibitory concentration (IC50) in assay [1] was over 1000 nM; in assay [2], 100 to 1000 nM; in assay [3], 100 to 1000 nM; in assay [4], 100 to 1000 nM.
In the case of `COc1c(Cl)cccc1Nc1c(-c2ccnc3ccc(OC4CCOCC4)nc23)[nH]c2c1C(=O)NCC2` [compound 740, 3-[(3-chloro-2-methoxyphenyl)amino]-2-[6-(oxan-4-yloxy)-1,5-naphthyridin-4-yl]-1H,5H,6H,7H-pyrrolo[3,2-c]pyridin-4-one], the 50% inhibitory concentration (IC50) in assay [1], in assay [2], in assay [3] and in assay [4] was under 100 nM in each case.
With `COc1ncc2nccc(-c3[nH]c4c(c3Nc3c(F)cccc3F)C(=O)NCC4)c2n1` [Compound 806, 3-[(2,6-difluorophenyl)amino]-2-[2-methoxypyrido[3,2-d]pyrimidin-8-yl]-1H,5H,6H,7H-pyrrolo[3,2-c]pyridin-4-one], the half-maximal inhibitory concentration (IC50) was over 1000 nM in assay [1], over 1000 nM in assay [2], over 1000 nM in assay [3] and 100 to 1000 nM in assay [4].
As to `COc1c(Cl)cccc1Nc1c(-c2ccnc3ccc(OC4CCC4)nc23)[nH]c2c1C(=O)NCC2` [compound 768, 3-[(3-chloro-2-methoxyphenyl)amino]-2-(6-cyclobutoxy-1,5-naphthyridin-4-yl)-1H,5H,6H,7H-pyrrolo[3,2-c] pyridin-4-one], the half-maximal inhibitory concentration (IC50) in assay [1] is 100 to 1000 nM; in assay [2] it was under 100 nM; in assay [3], under 100 nM; in assay [4], under 100 nM.
Regarding `COc1ccc2nccc(-c3[nH]c4c(c3Nc3cccc(Cl)c3OC)C(=O)NCC4)c2c1` [Compound 773, 3-[(3-chloro-2-methoxyphenyl)amino]-2-(6-methoxyquinolin-4-yl)-1H,5H,6H,7H-pyrrolo[3,2-c]pyridin-4-one], the IC50 in assay [1], in assay [2], in assay [3] and in assay [4] was over 1000 nM each time.
As for `COc1c(F)cccc1Nc1c(-c2ccnc3cnc(OC4COC4)nc23)[nH]c2c1C(=O)NCC2` [compound 440], the IC50 in assay [1] was 100 to 1000 nM; in assay [2] it was under 100 nM; in assay [3], under 100 nM; in assay [4], under 100 nM.
As to `COc1c(Cl)cccc1Nc1c(-c2ccncc2F)[nH]c2c1C(=O)NCC2` [compound 410], the IC50 was over 1000 nM in assay [1] and 100 to 1000 nM in assay [4].
`COc1c(Cl)cccc1Nc1c(-c2ccncc2F)[nH]c2c1C(=O)NCC2CC1CCO1` (single isomer, unassigned) [Compound 784]: the figures for the 50% inhibitory concentration (IC50) in assay [1], in assay [2] and in assay [4] were over 1000 nM, 100 to 1000 nM and 100 to 1000 nM, respectively.
`COCCC1(C)CNC(=O)c2c1[nH]c(-c1ccncc1F)c2Nc1cccc(Cl)c1OC` (single isomer, unassigned) [Compound 780]: the IC50 in assay [1] was […]; in assay [2], […].
On to `COc1c(Cl)cccc1Nc1c(-c2ccncc2F)[nH]c2c1C(=O)NCC2C[C@H]1CO[C@H](CN(C)C)CO1` (single isomer, unassigned) [Compound 565, (7R*)-3-[(3-chloro-2-methoxyphenyl)amino]-7-{[(2S,5R)-5-[(dimethylamino)methyl]-1,4-dioxan-2-yl]methyl}-2-(3-fluoropyridin-4-yl)-1H,5H,6H,7H-pyrrolo[3,2-c]pyridin-4-one], for which the results for the 50% inhibitory concentration (IC50) in assay [1] and in assay [2] were over 1000 nM and 100 to 1000 nM, respectively.
Turning to `COc1c(Cl)cccc1Nc1c(-c2ccncn2)[nH]c2c1C(=O)NCC2` [compound 675, 3-[(3-chloro-2-methoxyphenyl)amino]-2-(pyrimidin-4-yl)-1H,5H,6H,7H-pyrrolo[3,2-c]pyridin-4-one], the half-inhibitory concentration (IC50) in assay [1] is over 1000 nM; in assay [4], 100 to 1000 nM.
Take `COc1c(Cl)cccc1Nc1c(-c2ccncc2F)[nH]c2c1C(=O)NCC2CC1CCO1` (single isomer, unassigned) [Compound 783]: the IC50 is over 1000 nM in assay [1], under 100 nM in assay [2] and 100 to 1000 nM in assay [4].
With `COc1c(Cl)cccc1Nc1c(-c2ccncc2F)[nH]c2c1C(=O)NCC2CC1CCO1` (single isomer, unassigned) [Compound 786], the IC50 in assay [1] is 100 to 1000 nM; in assay [2] it was under 100 nM; in assay [4] it was 100 to 1000 nM.
For `COc1c(Cl)cccc1Nc1c(-c2ccncc2F)[nH]c2c1C(=O)NCC2CC1CCO1` (single isomer, unassigned) [Compound 785], the IC50 was 100 to 1000 nM in assay [1], under 100 nM in assay [2] and under 100 nM in assay [4].
